Laboratory results taken from patent US4769483A, “Cycloalkyl-substituted 4-aminophenyl derivatives and process for their preparation” (Farmitalia Carlo Erba, S.p.A., priority 1985, dated 1988).

What was measured:
aromatase = conditions: literature reports; cited from earlier work
[1] = target: T1, human placental aromatase (Homo sapiens, UniProt P11511); assay: Inhibition of human placental aromatase in vitro (3H2O release from 4-[1β,2β-3H]androstene-3,17-dione); format: biochemical; conditions: for IC50: microsomal fraction of human placental tissue, 50 nM 4-[3H]androstenedione, 100 μM NADPH, 0.05 mg microsomal proteins, 37° C., pH 7.5, 15 minutes; for Relative potency: versus aminoglutethimide (= 1 by definition)
T1 construct: the enzyme system was isolated from the microsomal fraction of human placental tissue; from tissue; host or cells: human placenta, microsomal fraction
T1 sequence (P11511 1-503): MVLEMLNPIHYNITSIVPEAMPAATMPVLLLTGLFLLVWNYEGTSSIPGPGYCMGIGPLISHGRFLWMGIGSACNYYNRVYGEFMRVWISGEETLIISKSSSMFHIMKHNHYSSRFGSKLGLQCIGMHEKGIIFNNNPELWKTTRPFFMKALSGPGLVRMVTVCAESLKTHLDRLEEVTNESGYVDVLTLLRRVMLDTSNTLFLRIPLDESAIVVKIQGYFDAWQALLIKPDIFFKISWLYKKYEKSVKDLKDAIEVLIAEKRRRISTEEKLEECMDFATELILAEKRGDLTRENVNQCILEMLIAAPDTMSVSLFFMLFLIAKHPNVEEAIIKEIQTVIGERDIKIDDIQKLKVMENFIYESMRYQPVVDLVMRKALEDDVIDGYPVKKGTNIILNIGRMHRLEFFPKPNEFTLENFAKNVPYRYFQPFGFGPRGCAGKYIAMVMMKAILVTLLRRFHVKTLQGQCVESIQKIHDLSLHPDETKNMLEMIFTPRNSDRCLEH
Protocol: The assay of the aromatase inhibition in vitro was carried out as follows: the enzyme system was isolated from the microsomal fraction of human placental tissue according to standard procedure. […] All incubations were carried out in a shaking water bath at 37° C. in air in 10 mM potassium phosphate buffer, pH 7.5, which contained 100 mM KCl, 1 mM EDTA and 1 mM dithiothreitol.
The experiments were carried out in 1 ml incubation volume containing 50 nM 4-[^3 H]androstenedione, various concentrations of the inhibitors, 100 μM NADPH and 0.05 mg of microsomal proteins. After 15 minutes of incubation the reaction was stopped by the addition of choroform (5 ml).
After centrifugation at 1500 ×g for 5 minutes aliquots (0.5 ml) were removed from the water phase for determination of ^3 H2 O formed.

IC50 [1] [nM]	Relative potency [1]	Compound	aromatase-inhibiting action (in words) (aromatase)
1220	1.7	Nc1ccc(C2CCCCC2)cc1 [4-cyclohexylaniline]	more or less selective aromatase-inhibiting action
		CCC1(c2ccncc2)CCC(=O)NC1=O (centres unmarked) [4-pyridyl-3-ethyl-2,6-piperidinedione]	more or less selective aromatase-inhibiting action
130	16.3	C[C@@H](C(=O)NC1CCCCC1)c1ccc(N)cc1 [FCE 24786, N-cyclohexyl-2-(R)-2-(4'-aminophenyl)propanamide]	
100	21.2	C[C@@H](C(=O)OC1CCCCC1)c1ccc(N)cc1 [FCE 24328, cyclohexyl 2-(R)-2-(4'-aminophenyl)propionate]	
